Source: patent publication US20030083469A1, “Allosteric control of nuclear hormone receptors” (The Salk Institute for Biological Studies, priority 1995, published 2003)

Assays:
GST-RXR/RAR heterodimers = target: T1, GST-RXR/RAR heterodimers (Homo sapiens, UniProt P10276+P19793); test: Ligand binding assay with GST-RXR/RAR heterodimers
T1 sequence (P19793 1-462): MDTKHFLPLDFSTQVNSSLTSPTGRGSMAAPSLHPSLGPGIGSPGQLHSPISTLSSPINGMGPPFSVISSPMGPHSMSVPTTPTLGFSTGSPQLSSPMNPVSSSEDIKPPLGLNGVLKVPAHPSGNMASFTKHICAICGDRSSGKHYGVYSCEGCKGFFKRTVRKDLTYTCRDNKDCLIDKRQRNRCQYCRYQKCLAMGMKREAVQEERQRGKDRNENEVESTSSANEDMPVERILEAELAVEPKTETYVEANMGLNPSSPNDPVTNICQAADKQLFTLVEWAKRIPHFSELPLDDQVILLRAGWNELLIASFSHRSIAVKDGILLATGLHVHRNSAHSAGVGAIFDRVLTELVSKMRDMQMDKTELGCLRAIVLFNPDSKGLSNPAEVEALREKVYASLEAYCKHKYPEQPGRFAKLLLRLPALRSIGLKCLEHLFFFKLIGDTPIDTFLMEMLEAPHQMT
T1 sequence (P10276 1-462): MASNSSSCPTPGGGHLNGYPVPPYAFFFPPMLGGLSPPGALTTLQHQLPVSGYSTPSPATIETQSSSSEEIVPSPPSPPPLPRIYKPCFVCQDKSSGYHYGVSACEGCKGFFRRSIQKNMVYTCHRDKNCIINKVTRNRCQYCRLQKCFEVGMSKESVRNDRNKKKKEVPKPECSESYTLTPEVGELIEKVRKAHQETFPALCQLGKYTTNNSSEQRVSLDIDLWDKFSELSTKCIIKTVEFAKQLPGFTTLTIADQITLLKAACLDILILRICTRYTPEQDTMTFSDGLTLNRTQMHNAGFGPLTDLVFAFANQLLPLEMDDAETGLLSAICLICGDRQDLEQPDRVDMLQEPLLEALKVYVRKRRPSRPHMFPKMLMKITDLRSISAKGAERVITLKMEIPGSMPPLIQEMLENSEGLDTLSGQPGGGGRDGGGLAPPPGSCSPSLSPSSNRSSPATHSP

GAL-RAR + RXR LBD = target: T2, GAL-RAR + RXR LBD (Homo sapiens, UniProt P19793); test: Transient transfection of GAL-RAR chimera with RXR LBD; format: cell-based; details: 100 nM LG69
T2 construct: or the human RXRα LBD (Glu 203 -Thr 462); expressed in transfected cells; host or cells: CV-1
T2 sequence (P19793 203-462): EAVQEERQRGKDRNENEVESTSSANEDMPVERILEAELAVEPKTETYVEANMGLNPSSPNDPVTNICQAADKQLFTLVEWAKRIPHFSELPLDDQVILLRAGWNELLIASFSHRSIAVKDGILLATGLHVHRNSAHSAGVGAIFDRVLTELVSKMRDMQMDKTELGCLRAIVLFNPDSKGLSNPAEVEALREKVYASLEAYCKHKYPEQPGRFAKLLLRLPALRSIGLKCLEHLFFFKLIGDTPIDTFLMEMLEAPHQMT
Description: (§1) CV-1 cells were grown in Dulbecco's Modified Eagle's medium supplemented with 10% resin-charcoal stripped (Samuels et al., Endocrinology 105:80-85 (1979)) fetal bovine serum, 50 U/ml penicillin G and 50 μg/ml streptomycin sulfate (DMEM-FBS) at 37° C. in 5% CO2. One day prior to transfection, cells were plated to 50-80% confluence using phenol-red free DMEM-FBS. Cells were transfected by lipofection using N-{2-(2,3)-dioleoyloxy)propyl-N,N,N-trimethyl ammonium methyl sulfate} according to the manufacturer's instructions (DOTAP, Boehringer Mannheim). […] Cells were harvested and assayed for luciferase and β-galactosidase activity. All points were performed in triplicate in each experiment and varied by less than 10%. Each experiment was repeated three or more times with similar results.
(§2) Since RXR serves as a silent partner in the T3R and RAR pathways, it was next investigated whether RXR could serve as an active component in other complexes. To search for such complexes, the LBD of a number of nuclear receptors were fused to the GAL4 DBD, and tested to determine whether the RXR LBD could confer LG69 responsiveness upon these GAL-LBD chimeras. […] Normalized luciferase activity was determined and plotted as fold-activation relative to untreated cells.

GST-hRXRα = target: T3, GST-hRXRα (Homo sapiens, UniProt P19793); test: Ligand binding assay with GST-RXR (glutathione-sepharose); details: 50 nM [3H] LG69; 2 μM unlabeled ligand
T3 construct: made in house
T3 sequence (P19793 1-462): T1 sequence (P19793 1-462)

[1] = target: T4, Nurrl-RXR heterodimer complex (Homo sapiens, UniProt P19793); test: Transient transfection of full-length Nurrl and RXR on NBRE x3 TK-LUC; format: cell-based, mouse Nurrl, human RXRα
T4 construct: transient transfection analysis of full-length Nurrl and/or RXR; expressed in transfected cells; host or cells: CV-1
T4 sequence (Q06219 whole entry partner, one chain of several): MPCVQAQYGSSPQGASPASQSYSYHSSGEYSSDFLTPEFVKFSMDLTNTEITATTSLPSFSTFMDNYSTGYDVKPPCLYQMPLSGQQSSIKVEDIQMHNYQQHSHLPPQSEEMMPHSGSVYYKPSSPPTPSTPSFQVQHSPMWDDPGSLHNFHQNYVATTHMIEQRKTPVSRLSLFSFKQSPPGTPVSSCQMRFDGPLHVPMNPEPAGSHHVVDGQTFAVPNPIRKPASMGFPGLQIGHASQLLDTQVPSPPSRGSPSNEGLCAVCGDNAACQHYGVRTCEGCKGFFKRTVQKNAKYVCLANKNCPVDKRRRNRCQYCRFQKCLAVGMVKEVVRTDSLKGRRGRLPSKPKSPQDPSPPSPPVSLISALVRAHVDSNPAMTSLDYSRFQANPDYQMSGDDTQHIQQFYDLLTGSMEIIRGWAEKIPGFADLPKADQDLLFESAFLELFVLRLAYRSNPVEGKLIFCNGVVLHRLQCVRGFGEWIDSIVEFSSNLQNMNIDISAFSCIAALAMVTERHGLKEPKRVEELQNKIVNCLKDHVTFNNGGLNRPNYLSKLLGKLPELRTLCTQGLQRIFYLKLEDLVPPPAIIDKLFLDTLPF
Description: One day prior to transfection, cells were plated to 50-80% confluence using phenol-red free DMEM-FBS. Cells were transfected by lipofection using N-{2-(2,3)-dioleoyloxy)propyl-N,N,N-trimethyl ammonium methyl sulfate} according to the manufacturer's instructions (DOTAP, Boehringer Mannheim).
(§3) Thus, CV-1 cells were tranfected with NBRE×3 TK-LUC (300 ng/10^5 cells) , CMX-βgal (500 ng/10^5 cells), alone or with CMX-Nurrl (100 ng/10^5 cells) and CMX-hRXRα (100 ng/10^5 cells) as indicated in FIG. 7B. Following transfection, cells were treated with or without 100 nM LG69. Normalized luciferase activity was determined and plotted as reporter activity.
Using sub-optimal amounts of RXR-expression vector, the CRBPII reporter was compared with a 3-copy NBRE reporter as follows. Cells were transfected as described with respect to FIG. 7B, but with a 5-fold lower amount of CMX-hRXRα (20 ng/10^5 cells). CRBPII TK-LUC (300 ng/10^5 cells) was used where indicated.

Nurrl = target: T5, Nurrl (Mus musculus, UniProt Q06219); test: Transient transfection of full-length Nurrl on NBRE x3 TK-LUC; format: cell-based; details: Nurrl alone; 100 nM LG69
T5 construct: an expression vector for full-length mouse Nurrl; expressed in transfected cells; host or cells: CV-1
T5 sequence (Q06219 whole entry): as the sequence (Q06219 whole entry partner, one chain of several) above
Description: as §1, §3

RXR LBD = target: T6, RXR LBD (Homo sapiens, UniProt P19793); test: Transient transfection, RXR LBD expressed alone (UASG x4 TK-LUC); format: cell-based; details: 100 nM LG69
T6 construct: or the human RXRα LBD (Glu 203 -Thr 462); expressed in transfected cells; host or cells: CV-1
T6 sequence (P19793 203-462): T2 sequence (P19793 203-462)
Description: as §1, §2

GAL-Nurrl + RXR-LBD = target: T7, GAL-Nurrl + RXR-LBD (Homo sapiens, UniProt P19793); test: Transient transfection of GAL-Nurrl chimera with RXR LBD; format: cell-based, mouse Nurrl, human RXRα; details: RXR-LBD co-expressed with GAL-Nurrl; 100 nM
T7 construct: or the human RXRα LBD (Glu 203 -Thr 462); expressed in transfected cells; host or cells: CV-1
T7 sequence (Q06219 318-598 partner limits assumed, one chain of several): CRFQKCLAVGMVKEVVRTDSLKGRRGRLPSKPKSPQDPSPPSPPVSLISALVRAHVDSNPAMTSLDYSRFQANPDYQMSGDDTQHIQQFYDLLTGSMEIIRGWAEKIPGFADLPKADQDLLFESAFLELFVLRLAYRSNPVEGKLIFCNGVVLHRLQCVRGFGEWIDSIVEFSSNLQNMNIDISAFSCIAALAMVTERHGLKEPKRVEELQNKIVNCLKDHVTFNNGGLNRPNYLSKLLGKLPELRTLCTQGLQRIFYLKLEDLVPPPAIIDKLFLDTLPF
Description: as §1, §2

CC=C(c1ccc(C(=O)O)cc1)c1cc2c(cc1C)C(C)(C)CCC2(C)C [LG69, 4-{1-(3,5,5,8,8-pentamethyl-5,6,7,8-tetrahydro-2-napthalenyl)-1-propenyl}benzoic acid]
competition of [3H] 9-cis RA binding by addition of both Am580 and LG69 (GST-RXR/RAR heterodimers; 50 nM [3H] 9-cis RA, 2 μM Am580 + 2 μM LG69): Nearly complete competition
decrease in the amount of [3H] LG69 bound to GST-RXR on addition of RAR (GST-RXR/RAR heterodimers; 50 nM [3H] LG69, 500 ng hRARα): < 85%
LG69 responsiveness (GAL-RAR + RXR LBD): not seen
competition of [3H] LG69 binding to GST-RXR by unlabeled ligand (GST-hRXRα): specifically completed
responsiveness of the Nurrl-RXR complex ([1]; Nurrl and RXR co-expressed, NBRE reporter): strongly responsive
response of Nurrl-RXR on NBRE reporter ([1]; limiting RXR (20 ng/10^5 cells)): potent response
responsiveness of Nurrl on the NBRE reporter (Nurrl): not responsive
LG69 responsiveness (RXR LBD): not seen
responsiveness to ligand (GAL-Nurrl + RXR-LBD): strong responsiveness
